Measured values published in PMC6943417, “Housefly Pupae-Derived Antioxidant Peptides Exerting Neuroprotective Effects on Hydrogen Peroxide-Induced Oxidative Damage in PC12 Cells” (Molecules, 2019).
Where no end group is shown, it is not given here.

Tested on: pepsin and pancreatin
Type: in vitro ADME
Protocol: The ABTS cation radical scavenging activity assay was conducted according to the manufacture instruction. […] The ABTS cation radical scavenging activity was calculated by the following formula: ABTS cation radical scavenging activity (%) = (1 − A1/A0) × 100%(2) where A1 and A0 were the absorbances of sample group and control group, respectively. The sample solution of control group was replaced with deionized water. Ascorbic acid was used as a positive control.
Thermal stability of synthetic peptides was determined according to the method of Yarnpakdee et al. with minor modifications. The synthetic peptides were respectively incubated at 25, 60, 70, 80, 90 °C for 30 min and then measured their scavenging ability of ABTS cation radical. The ability of synthetic peptides against pH treatments was measured according to Zhu et al.. In brief, pH of peptide solution was adjusted to 1, 3, 5, 7, 9, 11, incubated at room temperature for 1 h, and then ABTS cation radical scavenging activity of the treated peptides was measured. A two-stage digestion of protease in vitro (pepsin-digestion for 1 h and then pancreatin-digestion for 2 h at 37 °C) was performed as described by Zhang et al.. The ABTS cation radical scavenging ability was evaluated to assess the peptides stability against GI digestion.

change in ABTS radical scavenging ability after simulated GI digestion	Sequence
no significant change	ARFEELCSDLFR [AR12, Ala-Arg-Phe-Glu-Glu-Leu-Cys-Ser-Asp-Leu-Phe-Arg]
slight decrease	DFTPVCTTELGR [DR12, Asp-Phe-Thr-Pro-Val-Cys-Thr-Thr-Glu-Leu-Gly-Arg]
